From US12018229B2, “Organic compounds” (Givaudan SA, priority 2018, dated 2024)

Assay: Determination of GC-odor threshold values (gas chromatograph with sniff port, panel of trained evaluators)
Settings: absolute amount of compound delivered at the sniff port, identical conditions
Procedure: According to standard procedures known to the person skilled in the art, threshold values for volatile perfumery compounds are determined on a gas chromatograph equipped with a sniff port by a panel of trained evaluators. The lowest concentration smelled by each panelist is recorded as the individual threshold value expressed in ng (absolute amount of compound delivered at the sniff port).
Under identical conditions the odor threshold value for the individual compounds was measured.

Compound | odor threshold value [ng]
CC1=CCOC(CCCc2ccccc2)C1 (centres unmarked) [Example 1, 4-Methyl-2-(3-phenylpropyl)-3,6-dihydro-2H-pyran] | 0.02
CC1=CCOC(Cc2ccccc2)C1 (centres unmarked) [Example 3, 2-Benzyl-4-methyl-3,6-dihydro-2H-pyran] | 0.03
CC1=CCOC(CCc2ccccc2)C1 (centres unmarked) [Example 5, 4-Methyl-2-phenethyl-3,6-dihydro-2H-pyran, reference compound] | 45
CC1=CC(C)OC(CCCc2ccccc2)C1 (centres unmarked) [Example 2, 4,6-Dimethyl-2-(3-phenylpropyl)-3,6-dihydro-2H-pyran] | 0.03
CC1=CCOC(CCCCc2ccccc2)C1 (centres unmarked) [Example 4, 4-Methyl-2-(4-phenylbutyl)-3,6-dihydro-2H-pyran, reference compound] | 63
